Laboratory results from patent US5804593A, “α-Amino sulfonyl hydroxamic acids as matrix metalloproteinase inhibitors” (Pharmacia & Upjohn Company, priority 1997, dated 1998).

Molecular target: Gelatinase
Assay: particle concentration fluorescence assay of MMP inhibition in vitro
Type: biochemical
Conditions: fluorescein/biotin-labelled substrate, avidin-coated particles, room temperature, pH 7.5
Experimental: Inhibitory activity is evaluated in one or more of the MMP enzymes (stromelysin, gelatinase, and collagenase) in vitro using particle concentration fluorescence assay. An inhibitor binds to MMP enzymes which prevents the degradation of a substrate by stromelysin, gelatinase, or collagenase. The substrate has attached to it a fluorescein and a biotin moiety. The intact substrate then binds to an avidin-coated particle via the biotin moiety. Once the particle is washed and dried, a fluorescent signal is generated since the fluorescent group is attached to the particle. Without an inhibitor present, the substrate is degraded by MMP enzymes and the fluorescein group is removed, therefore, no fluorescent signal can be detected. Testing compounds are dissolved in DMSO to the desired concentration, then the solutions are diluted to 1:5 with MMP buffer (50 mM Tris-HCl, pH 7.5; 150 mM NaCl; 0.02% NaN3). Serial two-fold dilutions of each compound are prepared. A concentrated, activated enzyme solution is transferred into each plate of the testing compounds, and the mixture is incubated at room temperature for 15 minutes. Thawed MMP substrate is then added into all plates, and the plates are incubated in the dark for 1-3 hours at room temperature. At this point, the substrate mixture is mixed with 0.1% avidin-coated polystyrene particles. After 15 minutes, the fluorescence values are measured following filtration and washing of the beads. Ki values are then calculated.

Structure (SMILES)	Ki [nM]
COc1ccc(S(=O)(=O)N[C@H](Cc2c[nH]c3ccccc23)C(=O)NO)cc1 [Example 1, N-hydroxy-2(R)-[(4-methoxybenzenesulfonyl)amino]-3-(3-indolyl)-propanamide]	7.81
O=C(NO)[C@@H](Cc1c[nH]c2ccccc12)NS(=O)(=O)c1ccccc1 [Example 2, N-hydroxy-2(R)-[(benzenesulfonyl)amino]-3-(3-indolyl)-propanamide]	14.2
O=C(NO)[C@@H](Cc1c[nH]c2ccccc12)NS(=O)(=O)c1ccc(F)cc1 [Example 3, N-hydroxy-2(R)-[(4-fluorobenzenesulfonyl)-amino]-3-(3-indolyl)-propanamide]	79
COc1ccc(S(=O)(=O)N[C@H](Cc2ccccc2)C(=O)NO)cc1 [Example 4, N-hydroxy-2(R)-[(4-methoxybenzenesulfonyl)-amino]-3-phenyl-propanamide]	7.23
O=C(NO)[C@@H](Cc1c[nH]c2ccccc12)NS(=O)(=O)c1ccc(Br)cc1 [Example 5, N-hydroxy-2(R)-[(4-bromobenzenesulfonyl)amino]-3-(3-indolyl)-propanamide]	2.6

Results, then the molecule that gave them:

Ki [nM]	Structure (SMILES)
12.1	CCCCCCCCS(=O)(=O)N[C@H](Cc1c[nH]c2ccccc12)C(=O)NO [Example 6, N-hydroxy-2(R)-[(n-octylsulfonyl)amino]-3-(3-indolyl)-propanamide]
3.3	COc1ccc(S(=O)(=O)N[C@@H](C(=O)NO)c2ccccc2)cc1 [Example 7, N-hydroxy-2(R)-[(4-methoxybenzenesulfonyl)amino]-2-phenyl acetamide]
82	CC(C)[C@@H](NS(=O)(=O)c1ccccc1)C(=O)NO [Example 9, N-hydroxy-2(R)-[(benzenesulfonyl)amino]-3-methyl butanamide]
9.8	CCC(C)(C)C(NS(=O)(=O)c1ccc(OC)cc1)C(=O)NO (stereo not drawn) [Example 10, N-Hydroxy-2-[(4-methoxybenzenesulfonyl)-amino]-3,3-dimethyl pentanamide]
